Results on two compounds are retold here after PMC2774621, “Homogenous Fluorescent Assays for Characterizing Small-Molecule Activators of AMP-Activated Protein Kinase (AMPK)” (Current Chemical Genomics, 2008).

Experiment [1] deals with rat-liver or recombinant AMPK (α1β1γ1). More on the design: method as in PMID 16753576. The following applies: read-out: EC50 of AMPK activation; cited from earlier work.
Experiment [2] addresses AMPK α1β1γ1 and α2β1γ1 (Homo sapiens, UniProt P54619+P54646). Description: Summary statements across all assay formats (radiometric, TR-FRET, FRET, CHEF). It counts as biochemical. The following applies: read-out: half-maximal stimulatory concentration; all assay formats. As to the method: (§1) Kinase reactions were performed at room temperature in 50 mM HEPES pH 7.5, 0.01% BRIJ-35, 10 mM MgCl2, and 1 mM EGTA in a 30 µL assay volume in 96-well plates. For the inhibition experiments, a 2-fold dilution series of inhibitor stock solutions was first prepared in 100% DMSO at 100-fold concentration of inhibitor to be used in the assay. Prior to the assay, 4 µL of each inhibitor concentration was further diluted to 100 µL in assay buffer to prepare a working stock of inhibitor in 4% DMSO at 4-fold the final assay concentration. For the activation experiments, activators were prepared in 100% H2O at 4-fold the concentration to be tested in the assay. Assays were performed as follows: 7.5 µL of the inhibitor or activator working stock was added to a 17.5 µL solution of assay buffer, substrate and [^32P]-ATP (0.5 µCi/well), followed by 5 µL of enzyme to start the assay. All assays were performed in triplicate. The final concentration of SAMS peptide substrate in the reaction was 200 µM. AMPK α1β1γ1 was used at 334 ng/mL (1.8 nM) in the inhibition experiments and 83.3 ng/mL (0.44 nM) in the activation experiments, at an ATP concentration of 35 µM. AMPK α2β1γ1 was used at 1670 ng/mL (8.9 nM) in the inhibition experiments and 267 ng/mL (1.4 nM) in the activation experiments, at an ATP concentration of 65 µM. After 10 minutes, 20 µL of the reaction was spotted onto a p81 filter. The filters were washed three times in 0.5% phosphoric acid, and twice in distilled water before being counted in Beckman Coulter Ready Safe liquid scintillation cocktail using a Beckman Coulter LS6500 Multipurpose Scintillation Counter. Scintillation Counter output (cpm) was used to calculate specific activity (nmole / (min•mg)).
(§2) Kinase reactions were performed in a 10 µL assay volume at room temperature in 384-well low volume plates (Corning model 3676) using the same assay buffer as the radiometric assay. Activators and inhibitors were prepared as described for the radiometric assay. Assays were performed as follows: 2.5 µL of the inhibitor or activator working stock was added to a 5 µL solution of kinase and substrate, followed by 2.5 µL of ATP to start the assay. Assays were performed in quadruplicate. The final concentration of fluorescein-labeled CREBtide peptide substrate (derived from residues 123-136 of CREB protein) in the reaction was 400 nM. AMPK α1β1γ1 was used at 600 ng/mL (3.1 nM) in the inhibition experiments and 200 ng/mL (1.1 nM) in the activation experiments, at an ATP concentration of 50 µM. AMPK α2β1γ1 was used at 5 µg/mL (26.5 nM) in the inhibition experiments and 600 ng/mL (3.2 nM) in the activation experiments, at an ATP concentration of 150 µM. After one hour, a 10 µL solution of EDTA and terbium labeled phospho-specific antibody in 20 mM Tris, pH 7.5 and 0.01% NP-40 was added to a final well volume of 20 µL, a final antibody concentration of 1 nM, and a final EDTA concentration of 10 mM. After a 30 minute incubation at room temperature the assay plate was read on a BMG Pherastar plate reader using the LanthaScreen™ filter module. The TR-FRET ratio was calculated as the intensity of the acceptor signal divided by the intensity of the donor signal.
(§3) Kinase reactions were performed in a 10 µL assay volume at room temperature in 384-well low volume plates (Corning model 3676) using the same assay buffer as the radiometric assay. Inhibitors and activators were prepared as described for the radiometric assays. Assays were performed as follows: 2.5 µL of the inhibitor or activator working stock was added to a 5 µL solution of kinase and substrate, followed by 2.5 µL of ATP to start the assay. All assays were performed in quadruplicate. The final concentration of Z’-LYTE™ S/T23 peptide substrate in the reaction was 2 µM. AMPK α1β1γ1 was used at 79 ng/mL (0.42 nM) in the inhibition experiments and 41 ng/mL (0.22 nM) in the activation experiments, at an ATP concentration of 50 µM. […]
In general terms: In TR-FRET formats the signal depends on donor and acceptor labels being close together.

The target of experiment [3] is T1, AMPK α1β1γ1 and α2β1γ1 (Homo sapiens, UniProt P54619+P54646+Q9Y478).
T1 construct: made in house; host or cells: Sf9 insect cells (baculovirus)
T1 sequence (P54646 whole entry): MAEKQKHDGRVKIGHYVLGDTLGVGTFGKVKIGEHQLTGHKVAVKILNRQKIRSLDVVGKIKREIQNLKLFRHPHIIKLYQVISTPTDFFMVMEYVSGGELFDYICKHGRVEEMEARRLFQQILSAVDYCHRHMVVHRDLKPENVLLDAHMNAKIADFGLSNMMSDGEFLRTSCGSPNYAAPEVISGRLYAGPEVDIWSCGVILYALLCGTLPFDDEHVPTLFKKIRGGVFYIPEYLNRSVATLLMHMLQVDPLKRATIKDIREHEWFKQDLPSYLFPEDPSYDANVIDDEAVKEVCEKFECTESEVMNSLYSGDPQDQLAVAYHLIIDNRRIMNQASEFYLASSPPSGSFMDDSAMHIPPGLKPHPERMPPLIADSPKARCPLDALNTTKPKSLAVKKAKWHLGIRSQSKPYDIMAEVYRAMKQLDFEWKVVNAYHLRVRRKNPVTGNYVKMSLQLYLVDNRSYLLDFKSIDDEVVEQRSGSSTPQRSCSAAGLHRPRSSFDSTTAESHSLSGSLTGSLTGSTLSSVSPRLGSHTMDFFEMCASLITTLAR
T1 sequence (Q9Y478 whole entry): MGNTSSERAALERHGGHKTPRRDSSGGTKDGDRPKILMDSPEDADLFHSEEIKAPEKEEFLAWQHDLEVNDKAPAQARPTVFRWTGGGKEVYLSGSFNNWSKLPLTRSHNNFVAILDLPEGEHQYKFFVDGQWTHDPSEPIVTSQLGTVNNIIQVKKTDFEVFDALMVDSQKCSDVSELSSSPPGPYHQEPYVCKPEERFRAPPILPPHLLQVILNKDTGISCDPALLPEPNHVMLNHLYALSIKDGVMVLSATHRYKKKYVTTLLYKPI
T1 sequence (P54619 whole entry): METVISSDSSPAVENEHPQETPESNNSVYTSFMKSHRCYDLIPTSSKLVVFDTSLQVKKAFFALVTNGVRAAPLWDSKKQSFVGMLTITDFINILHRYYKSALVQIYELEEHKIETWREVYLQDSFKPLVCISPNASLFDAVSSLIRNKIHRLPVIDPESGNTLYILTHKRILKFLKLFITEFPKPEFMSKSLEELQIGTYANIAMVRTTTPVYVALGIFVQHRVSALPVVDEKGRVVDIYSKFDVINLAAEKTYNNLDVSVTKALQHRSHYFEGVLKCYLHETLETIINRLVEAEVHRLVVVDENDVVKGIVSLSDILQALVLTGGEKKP
The experiment is described as above. Format: biochemical. The following applies: α2β1γ1 isoform. As to the method:
as §1, §2, §3

Experiment [4] has as its target T2, AMPK α1β1γ1 and α2β1γ1 (Homo sapiens, UniProt P54619+Q13131+Q9Y478).
T2 construct: made in house; host or cells: Sf9 insect cells (baculovirus)
The experiment is described as above. It counts as biochemical. Particulars: α1β1γ1 isoform, any formats. On the procedure:
as §1, §2, §3

Experiment [5] has as its target T3, AMPK α2β1γ1 (Homo sapiens, UniProt P54619+P54646).
T3 construct: made in house; host or cells: Sf9 insect cells (baculovirus)
Description: Radiometric kinase assay (SAMS peptide, 32P-ATP). Format: biochemical. On the procedure:
as §1
(§4) Data analysis and curve-fitting was performed using GraphPad Prism software (GraphPad Software, Inc, San Diego CA).

Experiment [6] addresses T3, AMPK α2β1γ1. Description: TR-FRET activity assay (LanthaScreen, fluorescein-CREBtide). It counts as biochemical. The following applies: TR-FRET, ATP 150 µM, substrate 400 nM; read-out: Activator EC50. As to the method: (§5) Activators and inhibitors were prepared as described for the radiometric assay. Assays were performed as follows: 2.5 µL of the inhibitor or activator working stock was added to a 5 µL solution of kinase and substrate, followed by 2.5 µL of ATP to start the assay. Assays were performed in quadruplicate. […] After one hour, a 10 µL solution of EDTA and terbium labeled phospho-specific antibody in 20 mM Tris, pH 7.5 and 0.01% NP-40 was added to a final well volume of 20 µL, a final antibody concentration of 1 nM, and a final EDTA concentration of 10 mM. After a 30 minute incubation at room temperature the assay plate was read on a BMG Pherastar plate reader using the LanthaScreen™ filter module. The TR-FRET ratio was calculated as the intensity of the acceptor signal divided by the intensity of the donor signal.
as §4

A further experiment has as its target T4, AMPK α1β1γ1 (Homo sapiens, UniProt P54619+Q13131).
T4 construct: made in house; host or cells: Sf9 insect cells (baculovirus)
The experiment is described as above. Format: biochemical. The following applies: ATP 50 µM, substrate 400 nM, read-out: Activator EC50. As to the method: as §5, §4

For experiment [7], the system named is partially purified human AMPK. More on the design: method as in PMID 8185610. The following applies: cited from earlier work.
Experiment [8] relates to partially purified rat AMPK. More on the design: method as in PMID 8185610. Particulars: cited from earlier work.

T3 sequence (P54646 whole entry): as the sequence (P54646 whole entry) above
T3 sequence (Q9Y478 whole entry partner): as the sequence (Q9Y478 whole entry) above
T3 sequence (P54619 whole entry): as the sequence (P54619 whole entry) above
T2 sequence (Q13131 whole entry): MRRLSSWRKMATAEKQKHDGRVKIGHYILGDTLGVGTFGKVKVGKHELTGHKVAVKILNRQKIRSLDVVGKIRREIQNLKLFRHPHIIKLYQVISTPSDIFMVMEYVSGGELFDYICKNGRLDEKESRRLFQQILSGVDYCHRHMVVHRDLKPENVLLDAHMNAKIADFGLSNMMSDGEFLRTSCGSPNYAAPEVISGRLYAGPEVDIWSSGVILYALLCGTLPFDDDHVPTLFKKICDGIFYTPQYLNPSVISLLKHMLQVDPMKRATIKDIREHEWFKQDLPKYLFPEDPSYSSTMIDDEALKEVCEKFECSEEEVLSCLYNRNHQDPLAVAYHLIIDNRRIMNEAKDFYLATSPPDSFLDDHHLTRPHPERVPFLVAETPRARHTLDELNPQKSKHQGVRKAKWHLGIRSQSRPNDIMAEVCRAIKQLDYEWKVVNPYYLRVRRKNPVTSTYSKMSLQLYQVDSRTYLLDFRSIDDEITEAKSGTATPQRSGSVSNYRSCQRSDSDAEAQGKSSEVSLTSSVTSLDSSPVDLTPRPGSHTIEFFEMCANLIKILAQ
T2 sequence (Q9Y478 whole entry): as the sequence (Q9Y478 whole entry) above
T2 sequence (P54619 whole entry): as the sequence (P54619 whole entry) above
T4 sequence (Q13131 whole entry): as the sequence (Q13131 whole entry) above
T4 sequence (Q9Y478 whole entry partner): as the sequence (Q9Y478 whole entry) above
T4 sequence (P54619 whole entry): as the sequence (P54619 whole entry) above
AMPK α1β1γ1 and α2β1γ1 (Homo sapiens, UniProt P54619+P54646), sequence (P54619 whole entry): as above
AMPK α1β1γ1 and α2β1γ1 (Homo sapiens, UniProt P54619+P54646), sequence (P54646 whole entry): as the sequence (P54646 whole entry) above
AMPK α1β1γ1 and α2β1γ1 (Homo sapiens, UniProt P54619+P54646), sequence (Q9Y478 whole entry partner): as the sequence (Q9Y478 whole entry) above

For the compound `N#Cc1c(O)c2c(-c3ccc(-c4ccccc4O)cc3)csc2[nH]c1=O` [A-769662], the EC50 in [1] was roughly 0.8 µM.
In the case of `Nc1ncnc2c1ncn2[C@@H]1O[C@H](COP(N)(=O)O)[C@@H](O)[C@H]1O` [APR, adenosine 5′-monophosphoramidate], the EC50 on AMPK α1β1γ1 and α2β1γ1 [2] was greater than 50 µM; at AMPK α2β1γ1 [5], 194 µM; at AMPK α2β1γ1 [6], 43 µM; on AMPK α1β1γ1, 722 µM; in experiment [8] (rat AMPK, read-out: half-maximal stimulatory concentration) it was 1.9 µM. On AMPK α1β1γ1 and α2β1γ1 [3], the “maximal extent of activation” value is on record as 2 to 3 fold. Further, on AMPK α1β1γ1 and α2β1γ1 [4], the “activation before inhibiting kinase activity to below basal levels” value is recorded as “negligible activation”. Moreover, the Max. fold-activation at AMPK α2β1γ1 [5] (radiometric, ATP 65 µM, SAMS 200 µM) was determined as 1.9 fold. In addition, the results for the “fold stimulation (maximal extent of activation)” value in experiment [7] and in [8] (partially purified rat AMPK) were 2.25 fold and 1.5 fold, respectively.
